According to patent publication US20260347335A1, “PESTICIDALLY ACTIVE CYCLIC AMINE COMPOUNDS” (SYNGENTA CROP PROTECTION AG, priority 2022, published 2026):

tested on: Tetranychus urticae (Two-Spotted Spider Mite); assay: Example B1: Tetranychus urticae (Two-Spotted Spider Mite): Feeding/Contact Activity; assay type: in vivo; settings: foliar, 192 h, application rate of 200 ppm, 8 days after infestation, bean leaf discs on agar, mites of mixed ages, read-out: mortality on mixed population (mobile stages)
Protocol: Example B1: Tetranychus urticae (Two-Spotted Spider Mite): Feeding/Contact Activity
Bean leaf discs on agar in 24-well microtiter plates were sprayed with aqueous test solutions prepared from 10,000 ppm DMSO stock solutions. After drying the leaf discs were infested with a mite population of mixed ages. The samples were assessed for mortality on mixed population (mobile stages) 8 days after infestation.

| SMILES | mortality at 200 ppm |
| --- | --- |
| CC(=O)NC1(C2CCN(C(=O)c3cc(C#N)c(OCc4cc(Cl)ccc4F)nc3C(F)F)CC2)CC1 [Compound P1.18, N-[1-[1-[6-[(5-chloro-2-fluoro-phenyl)methoxy]-5-cyano-2-(difluoromethyl)pyridine-3-carbonyl]-4-piperidyl]cyclopropyl]acetamide] | ≥ 80% |
| CC(=O)NC1(C2CCN(C(=O)c3cc(C#N)c(OCc4ccc5c(c4)OC(F)(F)O5)nc3C(F)F)CC2)CC1 [Compound P1.6, N-[1-[1-[5-cyano-6-[(2,2-difluoro-1,3-benzodioxol-5-yl)methoxy]-2-(difluoromethyl)pyridine-3-carbonyl]-4-piperidyl]cyclopropyl]acetamide] | ≥ 80% |
| CC(C)(NS(C)(=O)=O)C1CCN(C(=O)c2cc(C#N)c(OCc3ccc4c(c3)OC(F)(F)O4)nc2C(F)F)CC1 [Compound P1.1, N-[1-[1-[5-cyano-6-[(2,2-difluoro-1,3-benzodioxol-5-yl)methoxy]-2-(difluoromethyl)pyridine-3-carbonyl]-4-piperidyl]-1-methyl-ethyl]methanesulfonamide] | ≥ 80% |
